This data set deals with UBE3A-ATS. The data set is described as follows: mouse, dose not given. The conditions noted are these: ASO.

The values that follow come from the OligoGym collection.

HELM strings list units from the 5' end as sugar, base in round brackets, then linkage (d deoxyribose, r ribose, m 2'-O-methyl, p phosphodiester). Strings are as the collection lists them; they lack the last nucleoside at the 3' end of the tested compound. [moe] = 2'-O-(2-methoxyethyl) (MOE); [sp] = phosphorothioate linkage; [m5C] = 5-methylcytosine

In turn, “RNA1{[moe](G)[sp].[moe](G)p.[moe](G)p.[moe](A)p.[moe](A)p.d(G)[sp].d(T)[sp].d([m5C])[sp].d(T)[sp].d(A)[sp].d(G)[sp].d(G)[sp].d(T)[sp].d([m5C])[sp].d(T)[sp].[moe]([m5C])p.[moe](A)p.[moe]([m5C])[sp].[moe](G)}$$$$ (last 3' nucleoside missing)” showed a 3 h FOB score of 3.2 score 0-7.

In turn, “RNA1{[moe](G)[sp].[moe](G)p.[moe](T)p.[moe]([m5C])p.d(A)[sp].d(T)[sp].d([m5C])[sp].d(T)[sp].d([m5C])[sp].d(G)[sp].d(G)[sp].d(G)[sp].d(T)[sp].d(A)[sp].[moe](T)p.[moe](A)p.[moe](T)p.[moe](A)[sp].[moe](A)}$$$$ (last 3' nucleoside missing)” yielded a 3 h FOB score of 5.5 score 0-7.

Substance “RNA1{[moe]([m5C])[sp].[moe](G)p.[moe](T)p.[moe](G)p.d(A)[sp].d(G)[sp].d([m5C])[sp].d(T)[sp].d(A)[sp].d(T)[sp].d([m5C])[sp].d(T)[sp].d(G)[sp].d(T)[sp].[moe](A)p.[moe]([m5C])p.[moe](A)p.[moe](A)[sp].[moe](A)}$$$$ (last 3' nucleoside missing)” registered a 3 h FOB score of 4 score 0-7.

Take “RNA1{[moe](T)[sp].[moe]([m5C])p.[moe](T)p.[moe](T)p.[moe](G)p.d([m5C])[sp].d(T)[sp].d(G)[sp].d(A)[sp].d(T)[sp].d([m5C])[sp].d(A)[sp].d([m5C])[sp].d(A)[sp].d(T)[sp].[moe](T)p.[moe](A)p.[moe]([m5C])[sp].[moe]([m5C])}$$$$ (last 3' nucleoside missing)”: the 3 h FOB score worked out at 0 score 0-7.

“RNA1{[moe](T)[sp].[moe](T)p.[moe]([m5C])p.[moe](A)p.[moe](T)p.d([m5C])[sp].d(A)[sp].d(G)[sp].d(T)[sp].d(T)[sp].d(A)[sp].d(G)[sp].d(T)[sp].d([m5C])[sp].d(A)[sp].[moe](G)p.[moe](G)p.[moe](T)[sp].[moe](T)}$$$$ (last 3' nucleoside missing)”: the 3 h FOB score was 4 score 0-7.

“RNA1{[moe]([m5C])[sp].[moe](A)p.[moe](G)p.[moe](T)p.[moe](T)[sp].d(A)[sp].d(G)[sp].d(G)[sp].d(T)[sp].d(T)[sp].d(A)[sp].d(G)[sp].d(T)[sp].[moe](G)p.[moe]([m5C])p.[moe](A)[sp].[moe]([m5C])}$$$$ (last 3' nucleoside missing)”: the 3 h FOB score was 4 score 0-7.

Substance “RNA1{[moe](G)[sp].[moe]([m5C])p.[moe](T)p.[moe](T)p.[moe](T)p.d(A)[sp].d(G)[sp].d(T)[sp].d(A)[sp].d(T)[sp].d(G)[sp].d(T)[sp].d([m5C])[sp].d(G)[sp].d(A)[sp].[moe](G)p.[moe](A)p.[moe](A)[sp].[moe]([m5C])}$$$$ (last 3' nucleoside missing)” had a 3 h FOB score of 6 score 0-7.

With “RNA1{[moe](T)[sp].[moe](G)p.[moe](T)p.[moe](G)[sp].d([m5C])[sp].d(A)[sp].d(T)[sp].d(A)[sp].d([m5C])[sp].d([m5C])[sp].d([m5C])[sp].d(A)[sp].[moe](G)p.[moe](G)p.[moe](G)p.[moe](T)[sp].[moe](A)}$$$$ (last 3' nucleoside missing)”, the 3 h FOB score stood at 1 score 0-7.

The substance “RNA1{[moe](A)[sp].[moe](A)p.[moe](G)p.[moe](T)p.[moe](A)p.d(T)[sp].d(A)[sp].d(G)[sp].d(A)[sp].d(T)[sp].d(G)[sp].d([m5C])[sp].d([m5C])[sp].d(T)[sp].d([m5C])[sp].[moe](T)p.[moe]([m5C])p.[moe]([m5C])[sp].[moe](T)}$$$$ (last 3' nucleoside missing)” displayed a 3 h FOB score of 4 score 0-7.

For the substance “RNA1{[moe](T)[sp].[moe]([m5C])p.[moe](T)p.[moe](G)p.[moe]([m5C])p.[moe](T)p.d([m5C])[sp].d(A)[sp].d(G)[sp].d(T)[sp].d(T)[sp].d(A)[sp].d(G)[sp].d(G)[sp].d(T)[sp].d(T)[sp].[moe](A)p.[moe](G)[sp].[moe](T)}$$$$ (last 3' nucleoside missing)”, the 3 h FOB score came to 4 score 0-7.

For “RNA1{[moe]([m5C])[sp].[moe]([m5C])p.[moe](A)p.[moe]([m5C])p.[moe](A)p.d([m5C])[sp].d(A)[sp].d(T)[sp].d(A)[sp].d(T)[sp].d(A)[sp].d(G)[sp].d(G)[sp].d([m5C])[sp].d(T)[sp].[moe](A)p.[moe](G)p.[moe]([m5C])[sp].[moe]([m5C])}$$$$ (last 3' nucleoside missing)”, the 3 h FOB score turned out to be 1 score 0-7.

For the substance “RNA1{[moe]([m5C])[sp].[moe](A)p.[moe](G)p.[moe](T)p.[moe](A)p.d(G)[sp].d(T)[sp].d(G)[sp].d(G)[sp].d(T)[sp].d(A)[sp].d(T)[sp].d([m5C])[sp].d(A)[sp].d(A)[sp].[moe](A)p.[moe](T)p.[moe]([m5C])[sp].[moe](T)}$$$$ (last 3' nucleoside missing)”, the 3 h FOB score is 6.2 score 0-7.

As to “RNA1{[moe]([m5C])[sp].[moe](G)p.[moe](T)p.[moe](T)p.[moe](A)p.d(T)[sp].d(T)[sp].d([m5C])[sp].d(A)[sp].d(G)[sp].d(T)[sp].d([m5C])[sp].d(T)[sp].d([m5C])[sp].d(A)[sp].[moe](G)p.[moe](G)p.[moe](G)[sp].[moe](A)}$$$$ (last 3' nucleoside missing)”, the 3 h FOB score was determined as 4.5 score 0-7.

In turn, “RNA1{[moe](A)[sp].[moe](G)p.[moe]([m5C])p.[moe]([m5C])p.[moe](A)p.[moe](G)[sp].d(G)[sp].d(T)[sp].d(G)[sp].d(T)[sp].d([m5C])[sp].d(T)[sp].d(T)[sp].d(A)[sp].[moe](T)p.[moe](A)[sp].[moe](T)}$$$$ (last 3' nucleoside missing)” had a 3 h FOB score of 0 score 0-7.

For the substance “RNA1{[moe](G)[sp].[moe]([m5C])p.[moe](A)p.[moe](T)[sp].d(A)[sp].d([m5C])[sp].d([m5C])[sp].d([m5C])[sp].d(A)[sp].d(G)[sp].d(G)[sp].d(G)[sp].[moe](T)p.[moe](A)p.[moe](G)p.[moe](G)[sp].[moe](A)}$$$$ (last 3' nucleoside missing)”, the 3 h FOB score is 0 score 0-7.

In the case of “RNA1{[moe](G)[sp].[moe](T)p.[moe](T)p.[moe](A)p.[moe](G)p.d(G)[sp].d(T)[sp].d(T)[sp].d(A)[sp].d(G)[sp].d(T)[sp].d(G)[sp].d([m5C])[sp].d(A)[sp].d([m5C])[sp].[moe](A)p.[moe](G)p.[moe](A)[sp].[moe](T)}$$$$ (last 3' nucleoside missing)”, the 3 h FOB score was found to be 6 score 0-7.

Take “RNA1{[moe](G)[sp].[moe](T)p.[moe]([m5C])p.[moe](A)p.[moe](G)p.d(A)[sp].d([m5C])[sp].d(T)[sp].d(T)[sp].d(A)[sp].d(T)[sp].d(T)[sp].d(G)[sp].d(A)[sp].d(G)[sp].[moe](G)p.[moe](A)p.[moe](T)[sp].[moe](G)}$$$$ (last 3' nucleoside missing)”: the 3 h FOB score was determined as 4 score 0-7.

“RNA1{[moe](G)[sp].[moe](T)p.[moe](G)p.[moe](G)p.[moe](T)p.d(T)[sp].d(T)[sp].d([m5C])[sp].d([m5C])[sp].d(A)[sp].d(G)[sp].d([m5C])[sp].d(A)[sp].d(G)[sp].d(G)[sp].[moe](G)p.[moe](T)p.[moe](G)[sp].[moe](T)}$$$$ (last 3' nucleoside missing)” registered a 3 h FOB score of 5.8 score 0-7.

Consider “RNA1{[moe]([m5C])[sp].[moe](T)p.[moe]([m5C])p.[moe](A)p.[moe](G)p.[moe](T)[sp].d(T)[sp].d(A)[sp].d(G)[sp].d(G)[sp].d(T)[sp].d(T)[sp].d(A)[sp].d(G)[sp].[moe](T)p.[moe](G)[sp].[moe]([m5C])}$$$$ (last 3' nucleoside missing)”, for which the 3 h FOB score is 6.3 score 0-7.

As for “RNA1{[moe](T)[sp].[moe](A)p.[moe](A)p.[moe](A)p.[moe](A)p.d(T)[sp].d([m5C])[sp].d([m5C])[sp].d(A)[sp].d(T)[sp].d(T)[sp].d(T)[sp].d(G)[sp].d(T)[sp].d([m5C])[sp].[moe]([m5C])p.[moe](A)p.[moe](G)[sp].[moe](T)}$$$$ (last 3' nucleoside missing)”, the 3 h FOB score is 3.3 score 0-7.

The substance “RNA1{[moe](A)[sp].[moe]([m5C])p.[moe](T)p.[moe](G)p.d([m5C])[sp].d(T)[sp].d(T)[sp].d([m5C])[sp].d(A)[sp].d([m5C])[sp].d([m5C])[sp].d(A)[sp].d(T)[sp].d(T)[sp].[moe](T)p.[moe](T)p.[moe](G)p.[moe](A)[sp].[moe]([m5C])}$$$$ (last 3' nucleoside missing)” yielded a 3 h FOB score of 1 score 0-7.

As to “RNA1{[moe](T)[sp].[moe](T)p.[moe]([m5C])p.[moe](A)[sp].d([m5C])[sp].d([m5C])[sp].d(A)[sp].d(T)[sp].d(T)[sp].d(T)[sp].d(T)[sp].d(G)[sp].[moe](A)p.[moe]([m5C])p.[moe]([m5C])p.[moe](T)[sp].[moe](T)}$$$$ (last 3' nucleoside missing)”, the 3 h FOB score is 0 score 0-7.

In turn, “RNA1{[moe]([m5C])[sp].[moe](A)p.[moe](G)p.[moe]([m5C])p.[moe]([m5C])p.d(A)[sp].d(G)[sp].d(G)[sp].d(T)[sp].d(G)[sp].d(T)[sp].d([m5C])[sp].d(T)[sp].d(T)[sp].d(A)[sp].[moe](T)p.[moe](A)p.[moe](T)[sp].[moe]([m5C])}$$$$ (last 3' nucleoside missing)” yielded a 3 h FOB score of 2.3 score 0-7.

Substance “RNA1{[moe](T)[sp].[moe]([m5C])p.[moe](A)p.[moe](T)p.[moe]([m5C])p.[moe](T)[sp].d([m5C])[sp].d(G)[sp].d(G)[sp].d(G)[sp].d(T)[sp].d(A)[sp].d(T)[sp].d(A)[sp].[moe](T)p.[moe](A)[sp].[moe](A)}$$$$ (last 3' nucleoside missing)” yielded a 3 h FOB score of 2.3 score 0-7.

On to “RNA1{[moe](T)[sp].[moe](G)p.[moe](G)p.[moe]([m5C])p.[moe](A)p.d(A)[sp].d(G)[sp].d(T)[sp].d(A)[sp].d(T)[sp].d(G)[sp].d([m5C])[sp].d(T)[sp].d(A)[sp].d(G)[sp].[moe](T)p.[moe]([m5C])p.[moe](A)[sp].[moe]([m5C])}$$$$ (last 3' nucleoside missing)”, for which the 3 h FOB score worked out at 2.3 score 0-7.

“RNA1{[moe](A)[sp].[moe](T)p.[moe](G)p.[moe](T)p.[moe](G)p.[moe]([m5C])p.d(A)[sp].d(T)[sp].d(A)[sp].d([m5C])[sp].d([m5C])[sp].d([m5C])[sp].d(A)[sp].d(G)[sp].d(G)[sp].d(G)[sp].[moe](T)p.[moe](A)[sp].[moe](G)}$$$$ (last 3' nucleoside missing)” showed a 3 h FOB score of 3.5 score 0-7.
